Consider 16 molecules from US11458123B2 (Arvinas, Inc., priority 2016, dated 2022).

This assay has as its system tau protein. The assay can be described thus: Tau protein in vitro degradation assay (Western blot, Tau-13 antibody). It is filed as cell-based, human. As to conditions: SK-N-SH cells, 72 hours of incubation; for Degradation activity* (highest amount of degradation observed at any dosage; tau protein remaining) / Degradation activity (tau protein remaining; highest amount of degradation observed at any dosage): tested at 300 nM, 100 nM, 33 nM and 11 nM, Western blot, Tau-13 antibody; for Activity* (highest amount of degradation observed at any dosage, as tau protein remaining): tested at 1000 nM, 300 nM and 100 nM. Here is the method: Tau Protein In Vitro Degradation Assay
To determine effect of PROTACs on tau protein degradation SK-N-SH cells were seeded in a 24-well tissue culture-treated plate for at least 18-hours prior to compound addition. Tau PROTACs were evaluated for tau degradation by lysing the cells in lysis buffer with protease inhibitors following a 72-hour incubation with tau PROTACs at 1000 nM, 300 nM and 100 nM for Table 1 and 300 nM, 100 nM, 33 nM and 11 nM for Table 2. Cell lysates were run on standard SDS-PAGE gels, and tau levels were detected by Western blotting using Tau-13 antibody from Abcam (Cambridge, UK) that binds to all forms of human tau.
A general note: Immunoblotting shows a protein as a band on a membrane.

On to `Cn1c2ccncc2c2ccc(-c3ccc(OCCCOc4ccc(C#CCOC5CN(c6ccc7c(c6)C(=O)N(C6CCC(=O)NC6=O)C7=O)C5)nc4)nc3)cc21` (stereo not shown) [Compound 167, 2-(2,6-dioxopiperidin-3-yl)-5-(3-((3-(5-(3-((5-(5-methyl-5H-pyrido[4,3-b]indol-7-yl)pyridin-2-yl)oxy)propoxy)pyridin-2-yl)prop-2-yn-1-yl)oxy)azetidin-1-yl)isoindoline-1,3-dione], for which the “Degradation activity* (highest amount of degradation observed at any dosage; tau protein remaining)” value was “C (>80% tau protein remaining after 72 hours of incubation with the test compound)”.

For the molecule `Cc1ncsc1-c1ccc(CNC(=O)[C@@H]2C[C@@H](O)CN2C(=O)[C@H](C(C)C)N2Cc3ccccc3C2=O)c(OCCOc2ccc(-c3ccc4c(c3)[nH]c3ccncc34)cn2)c1` [Compound 185, (2S,4R)—N-(2-(2-((5-(5H-pyrido[4,3-b]indol-7-yl)pyridin-2-yl)oxy)ethoxy)-4-(4-methylthiazol-5-yl)benzyl)-4-hydroxy-1-((S)-3-methyl-2-(1-oxoisoindolin-2-yl)butanoyl)pyrrolidine-2-carboxamide], the “Degradation activity (tau protein remaining; highest amount of degradation observed at any dosage)” value is listed as “C (>80% tau protein remaining after 72 hours of incubation with the test compound)”.

With `Cn1c2ccncc2c2ccc(-c3ccc(O[C@H]4C[C@H](N(C)C(=O)C56CC(COCCCCOc7ccc8c(c7)C(=O)N(C7CCC(=O)NC7=O)C8=O)(C5)C6)C4)nc3)cc21` (stereo partly shown) [Compound 199, 3-((4-((2-(2,6-dioxopiperidin-3-yl)-1,3-dioxoisoindolin-5-yl)oxy)butoxy)methyl)-N-methyl-N-((1r,3r)-3-((5-(5-methyl-5H-pyrido[4,3-b]indol-7-yl)pyridin-2-yl)oxy)cyclobutyl)bicyclo[1.1.1]pentane-1-carboxamide], the “Degradation activity (tau protein remaining; highest amount of degradation observed at any dosage)” value was “C (>80% tau protein remaining after 72 hours of incubation with the test compound)”.

`Cn1c2ccncc2c2ccc(-c3ccc(O[C@H]4C[C@@H](Oc5ccc(CCCCCCOc6ccc7c(c6)C(=O)N(C6CCC(=O)NC6=O)C7=O)cn5)C4)nc3)cc21` (stereo partly shown) [Compound 145, 2-(2,6-dioxopiperidin-3-yl)-5-(6-(6-((1s,3s)-3-(5-(5-methyl-5H-pyrido[4,3-b]indol-7-yl)pyridin-2-yloxy)cyclobutoxy)pyridin-3-yl)hexyloxy)isoindoline-1,3-dione]: the “Degradation activity* (highest amount of degradation observed at any dosage; tau protein remaining)” value was “C (>80% tau protein remaining after 72 hours of incubation with the test compound)”.

For the molecule `O=C1CCC(N2C(=O)c3ccc(OCCCCCN4CCN(CCCc5ccc(-c6ccc7c8cnccc8n(CC(F)(F)F)c7c6)cn5)CC4)cc3C2=O)C(=O)N1` (stereo not shown) [Compound 61, 2-(2,6-dioxopiperidin-3-yl)-5-((5-(4-(3-(5-(5-(2,2,2-trifluoroethyl)-5H-pyrido[4,3-b]indol-7-yl)pyridin-2-yl)propyl)piperazin-1-yl)pentyl)oxy)isoindoline-1,3-dione], the “Degradation activity* (highest amount of degradation observed at any dosage; tau protein remaining)” value is reported as “C (>80% tau protein remaining after 72 hours of incubation with the test compound)”.

`Cn1c2ccncc2c2ccc(-c3ccc(OC4CN(CCCCCOCCCCCOc5ccc6c(c5)C(=O)N(C5CCC(=O)NC5=O)C6=O)C4)nc3)cc21` (stereo not shown) [Compound 106, 2-(2,6-dioxopiperidin-3-yl)-5-((5-((5-(3-((5-(5-methyl-5H-pyrido[4,3-b]indol-7-yl)pyridin-2-yl)oxy)azetidin-1-yl)pentyl)oxy)pentyl)oxy)isoindoline-1,3-dione]: the “Degradation activity* (highest amount of degradation observed at any dosage; tau protein remaining)” value was “B (≤80% and >50% tau protein remaining after 72 hours of incubation with the test compound)”.

Regarding `Cn1c2ccncc2c2ccc(-c3ccc(O[C@H]4C[C@H](Oc5ccc(C#CCCCOc6ccc7c(c6)C(=O)N(C6CCC(=O)NC6=O)C7=O)nc5)C4)nc3)cc21` (stereo partly shown) [Compound 94, 2-(2,6-dioxopiperidin-3-yl)-5-((5-(5-((1r,3r)-3-((5-(5-methyl-5H-pyrido[4,3-b]indol-7-yl)pyridin-2-yl)oxy)cyclobutoxy)pyridin-2-yl)pent-4-yn-1-yl)oxy)isoindoline-1,3-dione], the “Degradation activity* (highest amount of degradation observed at any dosage; tau protein remaining)” value is “C (>80% tau protein remaining after 72 hours of incubation with the test compound)”.

`Cn1c2ccncc2c2ccc(-c3cnc(OCCOCCOCCOCCOCCOc4ccc5c(c4)C(=O)N(C4CCC(=O)NC4=O)C5=O)cc3Cl)cc21` (stereo not shown) [Compound 113, 5-((14-((4-chloro-5-(5-methyl-5H-pyrido[4,3-b]indol-7-yl)pyridin-2-yl)oxy)-3,6,9,12-tetraoxatetradecyl)oxy)-2-(2,6-dioxopiperidin-3-yl)isoindoline-1,3-dione]: the “Degradation activity* (highest amount of degradation observed at any dosage; tau protein remaining)” value was “C (>80% tau protein remaining after 72 hours of incubation with the test compound)”.

For the molecule `Cn1c2ccncc2c2ccc(-c3ccc(O[C@H]4C[C@H](Oc5cnc(CCCCCCOc6ccc7c(c6)C(=O)N(C6CCC(=O)NC6=O)C7=O)nc5)C4)nc3)cc21` (stereo partly shown) [Compound 151, 2-(2,6-dioxopiperidin-3-yl)-5-((6-(5-((1r,3r)-3-((5-(5-methyl-5H-pyrido[4,3-b]indol-7-yl)pyridin-2-yl)oxy)cyclobutoxy)pyrimidin-2-yl)hexyl)oxy)isoindoline-1,3-dione], the “Degradation activity* (highest amount of degradation observed at any dosage; tau protein remaining)” value was “B (≤80% and >50% tau protein remaining after 72 hours of incubation with the test compound)”.

Turning to `Cn1c2ccncc2c2ccc(-c3ccc(O[C@H]4C[C@H](OCCCOCCCOC5CN(c6ccc7c(c6)CN(C6CCC(=O)NC6=O)C7=O)C5)C4)nc3)cc21` (stereo partly shown) [Compound 177, 3-(5-(3-(3-(3-((1r,3r)-3-((5-(5-methyl-5H-pyrido[4,3-b]indol-7-yl)pyridin-2-yl)oxy)cyclobutoxy)propoxy)propoxy)azetidin-1-yl)-1-oxoisoindolin-2-yl)piperidine-2,6-dione], the “Degradation activity (tau protein remaining; highest amount of degradation observed at any dosage)” value is reported as “A (≤50% tau protein remaining after 72 hours of incubation with the test compound)”.

As for `O=C1CCC(N2C(=O)c3ccc(OCCOCCOCCOCCOCCOc4ccc(-c5ccc6c(c5)[nH]c5ccncc56)cn4)cc3C2=O)C(=O)N1` (stereo not shown) [Compound 51, 5-((14-((5-(5H-pyrido[4,3-b]indol-7-yl)pyridin-2-yl)oxy)-3,6,9,12-tetraoxatetradecyl)oxy)-2-(2,6-dioxopiperidin-3-yl)isoindoline-1,3-dione], the “Degradation activity* (highest amount of degradation observed at any dosage; tau protein remaining)” value is “A (≤50% tau protein remaining after 72 hours of incubation with the test compound)”.

For the molecule `O=C1CCC(N2C(=O)c3ccc(N4CCN(CCCc5ccc(O[C@H]6C[C@H](Oc7ccc(-c8ccc9c(c8)[nH]c8ccncc89)cn7)C6)cn5)CC4)cc3C2=O)C(=O)N1` (stereo partly shown) [Compound 64, 5-(4-(3-(5-((1r,3r)-3-((5-(5H-pyrido[4,3-b]indol-7-yl)pyridin-2-yl)oxy)cyclobutoxy)pyridin-2-yl)propyl)piperazin-1-yl)-2-(2,6-dioxopiperidin-3-yl)isoindoline-1,3-dione], the “Degradation activity* (highest amount of degradation observed at any dosage; tau protein remaining)” value was “C (>80% tau protein remaining after 72 hours of incubation with the test compound)”.

As for `Cc1ncsc1-c1ccc(CNC(=O)[C@@H]2C[C@@H](O)CN2C(=O)[C@@H](NC(=O)COCCOCCOCCOCC(=O)N2CCN(c3ccn4c(n3)nc3ccccc34)CC2)C(C)(C)C)cc1` [Compound 24, (2S,4R)-1-((5)-17-(4-(benzo[4,5]imidazo[1,2-a]pyrimidin-2-yl)piperazin-1-yl)-2-(tert-butyl)-4,17-dioxo-6,9,12,15-tetraoxa-3-azaheptadecanoyl)-4-hydroxy-N-(4-(4-methylthiazol-5-yl)benzyl)pyrrolidine-2-carboxamide], the “Activity* (highest amount of degradation observed at any dosage, as tau protein remaining)” value was “C (>80% tau protein remaining after 72 hours of incubation with the test compound)”.

In the case of `Cc1ncsc1-c1ccc(CNC(=O)[C@@H]2C[C@@H](O)CN2C(=O)[C@@H](NC(=O)COCCOCCOCCOc2ccc(-c3ccc4c(c3)[nH]c3ccncc34)cn2)C(C)(C)C)cc1` [Compound 1, (2S,4R)-1-((S)-14-(5-(5H-pyrido[4,3-b]indol-7-yl)pyridin-2-yloxy)-2-tert-butyl-4-oxo-6,9,12-trioxa-3-azatetradecane)-4-hydroxy-N-(4-(4-methylthiazol-5-yl)benzyl)pyrrolidine-2-carboxamide], the “Activity* (highest amount of degradation observed at any dosage, as tau protein remaining)” value is “C (>80% tau protein remaining after 72 hours of incubation with the test compound)”.

Regarding `Cn1c2ccncc2c2ccc(-c3ccc(C(F)(F)COCCCCCOCCCCCCOc4ccc5c(c4)C(=O)N(C4CCC(=O)NC4=O)C5=O)nc3)cc21` (stereo not shown) [Compound 93, 5-((6-((5-(2,2-difluoro-2-(5-(5-methyl-5H-pyrido[4,3-b]indol-7-yl)pyridin-2-yl)ethoxy)pentyl)oxy)hexyl)oxy)-2-(2,6-dioxopiperidin-3-yl)isoindoline-1,3-dione], the “Degradation activity* (highest amount of degradation observed at any dosage; tau protein remaining)” value is recorded as “C (>80% tau protein remaining after 72 hours of incubation with the test compound)”.

For the molecule `Cn1c2ccncc2c2ccc(-c3ccc(O[C@H]4C[C@H](N(C)C5CC6(C5)CN(C(=O)CCCCOc5ccc7c(c5)C(=O)N(C5CCC(=O)NC5=O)C7=O)C6)C4)nc3)cc21` (stereo partly shown) [Compound 137, 2-(2,6-dioxopiperidin-3-yl)-5-((5-(6-(methyl((1r,3r)-3-((5-(5-methyl-5H-pyrido[4,3-b]indol-7-yl)pyridin-2-yl)oxy)cyclobutyl)amino)-2-azaspiro[3.3]heptan-2-yl)-5-oxopentyl)oxy)isoindoline-1,3-dione], the “Degradation activity* (highest amount of degradation observed at any dosage; tau protein remaining)” value is “C (>80% tau protein remaining after 72 hours of incubation with the test compound)”.
